We go through 19 compounds from patent US7846928B2, “Substituted pyrazolopyridines and salts thereof, pharmaceutical compositions comprising same, methods of preparing same and uses of same” (Bayer Schering Pharma AG, priority 2006, dated 2010).

SMILES strings stand for the structures.

Assay [1] addresses T1, human insuline receptor (Ins-R) kinase domain (Homo sapiens, UniProt P06213).
T1 construct: GST-tagged recombinant kinase domain of the human insuline receptor; GST; purchased ProQinase, Freiburg, Germany; host or cells: SF-9 cells
Nature of the assay: InsR HTRF assay (assay 4). The class given is biochemical. The note with it: IC50 assay 4/IC50 assay 2. As to the method:
Inhibitory activity of compounds against the kinase activity of the insulin receptor was quantified employing the Ins-R HTRF assay as described in the following paragraphs.
GST-tagged recombinant kinase domain of the human insuline receptor (Ins-R, purchase from ProQinase, Freiburg, Germany) expressed in SF-9 cells was used as kinase. As substrate for the kinase reaction biotinylated poly-(Glu,Tyr) (Cis biointernational, France) was used.
Ins-R was incubated for 20 min at 22° C. in the presence of different concentrations of test compounds in 5 μl assay buffer [50 mM Hepes/NaOH pH 7, 15 mM MnCl2, 1 mM dithiothreitol, 0.1 μM sodium ortho-vanadate, 0.015% (v/v) PEG20000, 10 μM adenosine-tri-phosphate (ATP), 0.3 μg/ml substrate, 1% (v/v) dimethylsulfoxide]. The concentration of Ins-R was adjusted depending of the activity of the enzyme lot and was chosen appropriate to have the assay in the linear range, typical concentrations were in the range of 10 pg/μl. The reaction was stopped by the addition of 5 μl of a solution of HTRF detection reagents (0.1 μM streptavidine-XLent and 1 nM PT66-Eu-Chelate, an europium-chelate labelled anti-phosphotyrosine antibody from Perkin Elmer) in an aqueous EDTA-solution (80 mM EDTA, 0.2% (w/v) bovine serum albumin in 50 mM HEPES/NaOH pH 7.0).
(§1) The resulting mixture was incubated 1 h at 22° C. to allow the binding of the biotinylated phosphorylated peptide to the streptavidine-XLent and the PT66-Eu-Chelate. Subsequently the amount of phosphorylated substrate was evaluated by measurement of the resonance energy transfer from the PT66-Eu-Chelate to the streptavidine-XLent. Therefore, the fluorescence emissions at 620 nm and 665 nm after excitation at 350 nm was measured in a HTRF reader, e.g. a Rubystar (BMG Labtechnologies, Offenburg, Germany) or a Viewlux (Perkin-Elmer). The ratio of the emissions at 665 nm and at […] was taken as the measure for the amount of phosphorylated substrate. The data were normalised (enzyme reaction without inhibitor=0% inhibition, all other assay components but no enzyme=100% inhibition) and IC50 values were calculated by a 4 parameter fit using an inhouse software.
(In general: In TR-FRET formats the signal depends on donor and acceptor labels being close together.)

In assay [2] the target is Tie2 (Homo sapiens, UniProt Q02763). Description: Tie-2-Kinase HTRF-Assay without kinase preactivation (assay 2). The assay is classed as biochemical. More on the design: fusion protein of GST and the intracellular domains of Tie-2; GST; made in house; host or cells: insect cells (Hi-5). The note with it: GST-Tie-2 without preactivation, 10 μM ATP; pIC50 = -log IC50 molar.
Tie2, sequence (Q02763 770-1124 limits assumed): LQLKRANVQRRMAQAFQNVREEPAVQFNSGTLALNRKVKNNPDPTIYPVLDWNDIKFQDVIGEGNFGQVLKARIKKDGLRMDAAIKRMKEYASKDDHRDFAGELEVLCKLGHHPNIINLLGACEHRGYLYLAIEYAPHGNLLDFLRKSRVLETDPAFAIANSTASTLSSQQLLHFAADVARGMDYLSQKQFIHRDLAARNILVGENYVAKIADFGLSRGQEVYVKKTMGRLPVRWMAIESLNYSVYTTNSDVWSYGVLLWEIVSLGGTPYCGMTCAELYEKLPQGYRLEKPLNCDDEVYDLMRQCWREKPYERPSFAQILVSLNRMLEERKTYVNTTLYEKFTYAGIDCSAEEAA
Description: Tie2-inhibitory activity of compounds of the present invention was quantified employing two Tie2 HTRF assay as described in the following paragraphs.
A recombinant fusion protein of GST and the intracellular domains of Tie-2, expressed in insect cells (Hi-5) and purified by Glutathion-Sepharose affinity chromatography was used as kinase. Alternatively, commercially available GST-Tie2-fusion protein (Upstate Biotechnology, Dundee, Scotland) can be used As substrate for the kinase reaction the biotinylated peptide biotin-Ahx-EPKDDAYPLYSDFG (C-terminus in amid form) was used which can be purchased e.g. from the company Biosynthan GmbH (Berlin-Buch, Germany). Detection of phosphorylated product is achieved specifically by a trimeric detection complex consisting of the phosphorylated substrate, streptavidin-XLent (SA-XLent) which binds to biotin, and Europium Cryptate-labeled anti-phosphotyrosine antibody PT66 which binds to phosphorylated tyrosine.
Tie-2 (3.5 ng/measurement point) was incubated for 60 min at 22° C. in the presence of 10 μM adenosine-tri-phosphate (ATP) and 1 μM substrate peptide (biotin-Ahx-EPKDDAYPLYSDFG-NH2) with different concentrations of test compounds (0 μM and concentrations in the range 0.001-20 μM) in 5 μl assay buffer [50 mM Hepes/NaOH pH 7, 10 mM MgCl2, 0.5 mM MnCl2, 1.0 mM dithiothreitol, 0.01% NP40, protease inhibitor mixture (“Complete w/o EDTA” from Roche, 1 tablet per 2.5 ml), 1% (v/v) dimethylsulfoxide]. The reaction was stopped by the addition of 5 μl of an aqueous buffer (25 mM Hepes/NaOH pH 7.5, 0.28% (w/v) bovine serum albumin) containing EDTA (90 mM) and the HTRF (Homogeneous Time Resolved Fluorescence) detection reagents streptavidine-XLent (0.2 μM, from Cis Biointernational, Marcoule, France) and PT66-Eu-Chelate (0.3 ng/μl; a europium-chelate labelled anti-phospho-tyrosine antibody from Perkin Elmer).
as §1, with “substrate peptide” for “substrate”, “substrate peptide.” for “substrate.”

T1 sequence (P06213 1023-1298 limits assumed): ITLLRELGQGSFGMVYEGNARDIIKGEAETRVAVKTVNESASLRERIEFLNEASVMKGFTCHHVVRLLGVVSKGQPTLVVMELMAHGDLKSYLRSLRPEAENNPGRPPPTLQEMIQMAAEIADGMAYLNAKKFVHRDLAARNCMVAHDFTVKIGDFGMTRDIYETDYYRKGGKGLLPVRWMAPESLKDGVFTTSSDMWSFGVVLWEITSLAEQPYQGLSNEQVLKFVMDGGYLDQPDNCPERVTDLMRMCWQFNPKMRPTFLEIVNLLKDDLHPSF

Usually IC50 stands for the point on the concentration scale where inhibition reaches its midpoint. Read a high IC50 as a need for much substance. `CCc1cccc(NC(=O)Nc2ccc(-c3cc(C(C)(C)C)nc4[nH]ncc34)cc2)c1` [1.1, 1-[4-(6-tert-Butyl-1H-pyrazolo[3,4-b]pyridin-4-yl)-phenyl]-3-(3-ethylphenyl)-urea]: in assay [1], the “Selectivity vs. InsR” value is recorded as over 20 fold. The IC50 in assay [2] is under 501 nM.

In the case of `CC(C)c1cc(-c2ccc(NC(=O)Nc3cccc(C(F)(F)F)c3)cc2)c2cn[nH]c2n1` [1.2, 1-[4-(6-Isopropyl-1H-pyrazolo[3,4-b]pyridin-4-yl)-phenyl]-3-(3-trifluoromethyl-phenyl)-urea], the “Selectivity vs. InsR” value in assay [1] is on record as over 20 fold. Moreover, the IC50 in assay [2] was under 501 nM.

Consider `CC(C)c1cc(-c2ccc(NC(=O)Nc3cccc(C(F)(F)F)c3)cc2)c2cnn(C)c2n1` [1.3, 1-[4-(6-Isopropyl-1-methyl-1H-pyrazolo[3,4-b]pyridin-4-yl)-phenyl]-3-(3-trifluoromethyl-phenyl)-urea], for which the “Selectivity vs. InsR” value in assay [1] is over 20 fold. Moreover, in assay [2], the IC50 is under 501 nM.

For the compound `Cn1ncc2c(-c3ccc(NC(=O)Nc4cccc(C(F)(F)F)c4)cc3)ccnc21` [1.4, 1-[4-(1-Methyl-1H-pyrazolo[3,4-b]pyridin-4-yl)-phenyl]-3-(3-trifluoromethyl-phenyl)-urea], the “Selectivity vs. InsR” value in assay [1] was over 20 fold. For the same compound, the IC50 in assay [2] is under 501 nM.

Take `Cc1ccc(F)c(NC(=O)Nc2ccc(-c3ccnc4c3cnn4C)cc2)c1` [1.7, 1-(2-Fluoro-5-methyl-phenyl)-3-[4-(1-methyl-1H-pyrazolo[3,4-b]pyridin-4-yl)-phenyl]-urea]: the “Selectivity vs. InsR” value in assay [1] was over 20 fold. This compound showed an IC50 in assay [2] of under 501 nM.

For `Cn1ncc2c(-c3ccc(NC(=O)Nc4cc(C(F)(F)F)ccc4F)cc3)ccnc21` [1.8, 1-(2-Fluoro-5-trifluoromethyl-phenyl)-3-[4-(1-methyl-1H-pyrazolo[3,4-b]-pyridin-4-yl)-phenyl]-urea], in assay [1], the “Selectivity vs. InsR” value is over 20 fold. Besides, the IC50 in assay [2] is under 501 nM.

As to `Cc1cccc(NC(=O)Nc2ccc(-c3cc(C(C)(C)C)nc4[nH]ncc34)cc2)c1` [1.11, 1-[4-(6-tert-Butyl-1H-pyrazolo[3,4-b]pyridin-4-yl)-phenyl]-3-m-tolyl-urea], the “Selectivity vs. InsR” value in assay [1] is given as over 20 fold. Besides, in assay [2], the IC50 lay in the range of 501 to 1000 nM.

In the case of `CN1CCN(Cc2ccc(NC(=O)Nc3ccc(-c4cc(C(C)(C)C)nc5[nH]ncc45)cc3)cc2C(F)(F)F)CC1` [1.15, 1-[4-(6-tert-Butyl-1H-pyrazolo[3,4-b]pyridin-4-yl)-phenyl]-3-[4-(4-methyl-piperazin-1-ylmethyl)-3-trifluoromethyl-phenyl]-urea], in assay [1], the “Selectivity vs. InsR” value is given as over 20 fold. Further, the IC50 in assay [2] is under 501 nM.

For `Cc1cc(-c2ccc(NC(=O)Nc3cccc(C(F)(F)F)c3)cc2)c2cn[nH]c2n1` [1.18, 1-[4-(6-Methyl-1H-pyrazolo[3,4-b]pyridin-4-yl)-phenyl]-3-(3-trifluoromethyl-phenyl)-urea], the “Selectivity vs. InsR” value in assay [1] is over 20 fold. The IC50 in assay [2] is under 501 nM.

As to `O=C(Nc1ccc(-c2ccnc3[nH]ncc23)cc1)Nc1cccc(C(F)(F)F)c1` [1.20, 1-[4-(1H-Pyrazolo[3,4-b]pyridin-4-yl)-phenyl]-3-(3-trifluoromethyl-phenyl)-urea], the “Selectivity vs. InsR” value in assay [1] was over 20 fold. Moreover, the IC50 in assay [2] was under 501 nM.

On to `Cc1ccc(F)c(NC(=O)Nc2ccc(-c3ccnc4[nH]ncc34)cc2)c1` [1.22, 1-(2-Fluoro-5-methyl-phenyl)-3-[4-(1H-pyrazolo[3,4-b]pyridin-4-yl)-phenyl]-urea], for which the “Selectivity vs. InsR” value in assay [1] was over 20 fold. The IC50 in assay [2] lay in the range of 501 to 1000 nM.

Turning to `CN1CCC(Oc2ccc(NC(=O)Nc3ccc(-c4ccnc5c4cnn5C)cc3)cc2C(F)(F)F)CC1` [1.23, 1-[4-(1-Methyl-piperidin-4-yloxy)-3-trifluoromethyl-phenyl]-3-[4-(1-methyl-1H-pyrazolo[3,4-b]pyridin-4-yl)-phenyl]-urea], the “Selectivity vs. InsR” value in assay [1] is on record as over 20 fold. The compound further gave an IC50 in assay [2] of under 501 nM.

Regarding `CN1CCN(Cc2ccc(NC(=O)Nc3ccc(-c4ccnc5c4cnn5C)cc3)cc2C(F)(F)F)CC1` [1.24, 1-[4-(4-Methyl-piperazin-1-ylmethyl)-3-trifluoromethyl-phenyl]-3-[4-(1-methyl-1H-pyrazolo[3,4-b]pyridin-4-yl)-phenyl]-urea], in assay [1], the “Selectivity vs. InsR” value is over 20 fold. The compound further registered an IC50 in assay [2] of under 501 nM.

On to `CN(C)C(=O)C1(c2cc(-c3ccc(NC(=O)Nc4cccc(C(F)(F)F)c4)cc3)c3cnn(C)c3n2)CC1` [1.26, 1-(1-Methyl-4-{4-[3-(3-trifluoromethyl-phenyl)-ureido]-phenyl}-1H-pyrazolo[3,4-b]pyridin-6-yl)-cyclopropane-carboxylic acid dimethylamide], for which, in assay [1], the “Selectivity vs. InsR” value is listed as over 20 fold. The compound also gave an IC50 in assay [2] of under 501 nM.

As to `Cc1ccc(F)c(NC(=O)Nc2ccc(-c3cc(C4(C(=O)N(C)C)CC4)nc4c3cnn4C)cc2)c1` [1.29, 1-(4-{4-[3-(2-Fluoro-5-methyl-phenyl)-ureido]-phenyl}-1-methyl-1H-pyrazolo[3,4-b]pyridin-6-yl)-cyclopropane-carboxylic acid dimethylamide], in assay [1], the “Selectivity vs. InsR” value is over 20 fold. This compound displayed an IC50 in assay [2] of under 501 nM.

Consider `CN1CCN(Cc2ccc(NC(=O)Nc3ccc(-c4ccnc5[nH]ncc45)cc3)cc2C(F)(F)F)CC1` [1.33, 1-[4-(4-Methyl-piperazin-1-yl-methyl)-3-trifluoromethyl-phenyl]-3-[4-(1H-pyrazolo[3,4-b]pyridin-4-yl)-phenyl]-urea], for which, in assay [1], the “Selectivity vs. InsR” value is listed as over 20 fold. Further, the IC50 in assay [2] was under 501 nM.

For `Cn1ncc2c(-c3ccc(NC(=O)Nc4cccc(C(F)(F)F)c4)cc3)cc(C3CCC3)nc21` [1.37, 1-[4-(6-Cyclobutyl-1-methyl-1H-pyrazolo[3,4-b]pyridin-4-yl)-phenyl]-3-(3-trifluoromethyl-phenyl)-urea], the “Selectivity vs. InsR” value in assay [1] is over 20 fold. This compound had an IC50 in assay [2] of under 501 nM.

In the case of `Cn1ncc2c(-c3ccc(NC(=O)Nc4cccc(C(F)(F)F)c4)cc3)cc(C3CCCCC3)nc21` [1.38, 1-[4-(6-Cyclohexyl-1-methyl-1H-pyrazolo[3,4-b]pyridin-4-yl)-phenyl]-3-(3-trifluoromethyl-phenyl)-urea], the “Selectivity vs. InsR” value in assay [1] was over 20 fold. This compound also displayed an IC50 in assay [2] of under 501 nM.

As for `Cc1cc(-c2ccc(NC(=O)Nc3cc(F)cc(C(F)(F)F)c3)cc2)c2cnn(C)c2n1` [2.4, 1-[4-(1,6-Dimethyl-1H-pyrazolo[3,4-b]pyridin-4-yl)-phenyl]-3-(3-fluoro-5-trifluoromethyl-phenyl)-urea], the “Selectivity vs. InsR” value in assay [1] is on record as over 20 fold. For the same compound, the IC50 in assay [2] is under 501 nM.
